Data reported in ChEMBL document CHEMBL1201862, “PubChem BioAssay data set” (2004).
Active and inactive are the calls of the source.

Experiments:
[1] = Vero cell cytotoxicity, dose response, cytotoxicity control for Vif-APOBEC3G degradation inhibitor project, Vero cells (AID 1117358); format: functional; conditions: Human immunodeficiency virus 1, Vero
[2] = tested on: BJ; experiment: cells; format: functional, cell-based; conditions: Homo sapiens
[3] = target: Luciferin 4-monooxygenase (Photinus pyralis, UniProt P08659); experiment: Counter Screen for Luciferase-based Assay Positives. [Related pubchem assays: 620, 618, 411 ]
[4] = target: T1, Replicative DNA helicase DnaB (Mycobacterium tuberculosis, UniProt P9WMR3); experiment: DnaB intein splicing inhibitors, dose response, biochemical, cell-free fluorescence (AID 449749); format: functional
T1 sequence (P9WMR3 whole entry): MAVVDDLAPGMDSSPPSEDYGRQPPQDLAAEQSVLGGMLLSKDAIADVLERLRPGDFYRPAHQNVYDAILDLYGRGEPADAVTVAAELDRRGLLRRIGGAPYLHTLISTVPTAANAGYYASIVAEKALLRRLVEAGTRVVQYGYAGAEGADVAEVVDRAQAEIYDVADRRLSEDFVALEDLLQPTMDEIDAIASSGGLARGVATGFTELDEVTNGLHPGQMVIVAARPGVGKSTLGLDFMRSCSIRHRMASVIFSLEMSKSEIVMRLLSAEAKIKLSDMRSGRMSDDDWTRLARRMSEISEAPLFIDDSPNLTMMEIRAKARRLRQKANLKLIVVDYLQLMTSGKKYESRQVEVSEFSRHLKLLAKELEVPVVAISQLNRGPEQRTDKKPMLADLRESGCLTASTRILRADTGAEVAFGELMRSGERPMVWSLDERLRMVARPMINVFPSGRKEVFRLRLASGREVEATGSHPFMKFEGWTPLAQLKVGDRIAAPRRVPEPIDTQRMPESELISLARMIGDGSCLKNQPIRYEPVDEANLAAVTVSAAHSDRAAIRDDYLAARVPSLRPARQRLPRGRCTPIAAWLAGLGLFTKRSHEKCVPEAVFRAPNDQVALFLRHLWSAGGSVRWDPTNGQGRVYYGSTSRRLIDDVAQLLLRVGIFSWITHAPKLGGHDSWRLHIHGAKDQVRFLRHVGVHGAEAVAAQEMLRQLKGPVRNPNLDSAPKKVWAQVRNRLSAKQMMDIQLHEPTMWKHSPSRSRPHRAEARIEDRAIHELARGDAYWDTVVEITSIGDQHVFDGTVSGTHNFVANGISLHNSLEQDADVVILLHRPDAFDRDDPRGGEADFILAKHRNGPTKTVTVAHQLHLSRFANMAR

[5] = cytotoxicity toward DRD oncogenic fibroblasts, dose response, cell-based, non-viral oncogenic, luminescence (AID 1934); format: functional; conditions: Homo sapiens
[6] = tested on: BJ; experiment: cytotoxicity toward BJ-TERT-LT-ST fibroblasts, dose response, cell-based, RAS-independent, luminescence (AID 1935); format: functional; conditions: Homo sapiens;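 note: BJ fibroblasts immortalized with TERT plus LT and ST oncogenes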
[7] = tested on: HEK293; experiment: NOD2 signaling inhibitors in MDP-stimulated cells, cell-based, uHTS, luminescence (AID 2001); format: functional; conditions: Homo sapiens
[8] = tested on: BJ; experiment: cytotoxicity toward BJ-TERT fibroblasts, dose response, cell-based, RAS-independent, luminescence (AID 1933); format: functional; conditions: Homo sapiens
[9] = tested on: BJ; experiment: cytotoxicity toward Ras-transformed BJeLR fibroblasts, dose response, cell-based, alamar blue fluorescence, cherrypicked samples (AID 2631); format: functional; conditions: Homo sapiens;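 note: confirmatory dose-response assay in RAS-dependent BJ fibroblasts engineered with TERT, LT and ST, with cytotoxicity read by fluorescence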
[10] = tested on: HEK293; experiment: cells; format: functional, cell-based; conditions: Homo sapiens
[11] = inhibitors of PGC1a acetylation in cells, dose response, cell-based, cherry-picked samples (AID 720514); format: functional;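 note: potency may reflect raised or lowered acetylation signal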
[12] = tested on: HT-1080; experiment: cytotoxicity in HT1080 fibrosarcoma cells, cell-based, fluorescence readout (AID 620); format: functional; conditions: Homo sapiens
[13] = target: T2, E3 ubiquitin-protein ligase XIAP (Homo sapiens, UniProt P98170); experiment: XIAP antagonists, biochemical, IAP family, fluorescence polarization (AID 1018); format: functional
[14] = target: T2, E3 ubiquitin-protein ligase XIAP; experiment: Counter Screen using XIAP-Bir3 for Chemical Antagonists of Bir1/2 domains of IAP-family anti-apoptotic proteins. [Related pubchem assays (depositor defined):AID1018, AID1449, AID1514, AID1638, AID1749, AID1750, AID488957, AID488963]
[15] = tested on: HEK293; experiment: cells; format: functional, cell-based; conditions: Homo sapiens; remark: listed apart in the source
[16] = tested on: HEK293; experiment: NOD1 signaling inhibitors, primary screen, cell-based, luminescence, uHTS (AID 1578); format: functional; conditions: Homo sapiens
[17] = target: T3, Protein RecA (Mycobacterium tuberculosis, UniProt P9WHJ3); experiment: Fluorescence Cell-Free Homogeneous Dose Retest to Identify Inhibitors of RecA-Intein Splicing Activity. [Related pubchem assays (depositor defined):AID2097, AID2223, AID489010, AID492950]; format: functional
T3 sequence (P9WHJ3 whole entry): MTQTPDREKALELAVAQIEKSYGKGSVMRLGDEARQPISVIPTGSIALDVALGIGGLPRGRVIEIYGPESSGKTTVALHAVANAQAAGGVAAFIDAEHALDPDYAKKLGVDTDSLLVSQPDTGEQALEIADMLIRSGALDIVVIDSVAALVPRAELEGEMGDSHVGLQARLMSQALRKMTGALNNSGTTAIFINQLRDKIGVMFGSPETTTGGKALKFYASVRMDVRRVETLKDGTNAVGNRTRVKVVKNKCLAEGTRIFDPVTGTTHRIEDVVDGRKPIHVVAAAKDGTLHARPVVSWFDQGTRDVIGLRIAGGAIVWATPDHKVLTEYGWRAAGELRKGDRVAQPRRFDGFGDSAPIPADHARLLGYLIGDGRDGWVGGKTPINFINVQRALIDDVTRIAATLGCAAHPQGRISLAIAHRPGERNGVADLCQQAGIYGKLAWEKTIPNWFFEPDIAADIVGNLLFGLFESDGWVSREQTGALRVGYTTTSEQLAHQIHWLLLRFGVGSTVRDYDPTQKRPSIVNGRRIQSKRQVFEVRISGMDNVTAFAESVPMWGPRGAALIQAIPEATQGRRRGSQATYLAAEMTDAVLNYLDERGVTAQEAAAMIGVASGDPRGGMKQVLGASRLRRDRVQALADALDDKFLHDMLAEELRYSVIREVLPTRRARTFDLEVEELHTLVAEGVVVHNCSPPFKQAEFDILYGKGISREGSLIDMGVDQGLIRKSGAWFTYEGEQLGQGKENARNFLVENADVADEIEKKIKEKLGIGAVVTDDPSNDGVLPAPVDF

[18] = microbe, parasite or virus in culture; format: functional; conditions: Mycobacterium tuberculosis
[19] = CellTiter-Glo luminescent dose response of DLD-1 viability loss (AID 1117352); format: functional
[20] = cytotoxicity toward HT-29 cells – cell-based, CellTiter-Glo luminescence, IC50, dose response (AID 1117330); format: functional
[21] = cytotoxicity toward Colo320 cells – cell-based, CellTiter-Glo luminescence, IC50, dose response (AID 1117334); format: functional; conditions: COLO 320
[22] = Glucagon-like peptide 1 release potency, NCI-H716 cell line, dose-response, half-maximal inhibitory concentration (AID 1117344); format: functional, cell-based
[23] = RKO cell viability reduction, dose response, CellTiter-Glo luminescence (AID 1117322); format: functional
[24] = cytotoxicity toward HCT116 cells – cell-based, CellTiter-Glo luminescence, IC50, dose response (AID 1117332); format: functional; conditions: HCT-116
[25] = half-maximal inhibitory concentration for glucagon-like peptide-1 release, STC-1 cell line, dose-response (AID 1117345); format: functional, cell-based
[26] = Concentration-dependent survival of SW480 colon cancer line, luminescence detection with CellTiter-Glo, half-maximal inhibitory concentration (AID 1117338); format: functional
[27] = HCT116 cell viability decrease, GSK3B pretreatment – CellTiter-Glo, IC50, dose response (AID 1117339); format: functional; conditions: HCT-116
[28] = SNU-C1 cell viability reduction, dose response, CellTiter-Glo luminescence (AID 1117323); format: functional, cell-based
[29] = LGR2 antagonists, dose response, cell-based, HEK293, CRE-luciferase reporter, cherry pick, set 2 (AID 743343); format: functional;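 note: transfected cells were stimulated with diluted bursicon conditioned medium after compound addition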
[30] = P. falciparum ATP4 D1247Y mutant growth inhibitors, dose response, NITD609-resistant line, SYBR Green, dry powder (AID 1159571); format: functional, cell-based;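 note: parasites synchronized at ring stage by sorbitol before testing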
[31] = HEK293 cell cytotoxicity, dose response, cytotoxicity control, plate reader, cherry-picked samples (AID 743446); format: functional, cell-based
[32] = HepG2 cell cytotoxicity, dose response, cytotoxicity control, plate reader, dry powder samples (AID 1159569); format: functional, cell-based;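 note: inhibitor potency with signal falling toward the positive control level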
[33] = P. falciparum Dd2 growth inhibitors, dose response, SYBR Green, cherry-picked samples (AID 1159567); format: functional, cell-based
[34] = P. falciparum 3D7-ScDHODH growth inhibitors, dose response, SYBR Green, dry powder samples (AID 1159570); format: functional, cell-based;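 note: parasite growth measured after 72 hours of compound exposure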
[35] = A549 cell cytotoxicity, dose response, cytotoxicity control, plate reader, cherry-pick, antagonist series (AID 743412); format: functional, cell-based
[36] = HepG2 cell cytotoxicity, dose response, cytotoxicity control, plate reader, cherry-pick, antagonist series (AID 743416); format: functional, cell-based
[37] = P. falciparum Dd2 growth inhibitors, dose response, SYBR Green, dry powder samples (AID 1159566); format: functional, cell-based;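 note: potency for growth inhibition with lower SYBR green DNA signal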
[38] = MC4R antagonists, dose response, counter-screen for LGR2 antagonist project, cell-based, plate reader, cherry pick (AID 743444); format: functional;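 note: transfected HEK 293 cells stimulated with alpha-MSH peptide; potency of inhibitors of the alpha-MSH evoked signal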
[39] = P. falciparum Dd2 growth inhibitors, dose response, SYBR Green, dry powder samples, set 9 (AID 1159568); format: functional, cell-based

T2 sequence (P98170 whole entry): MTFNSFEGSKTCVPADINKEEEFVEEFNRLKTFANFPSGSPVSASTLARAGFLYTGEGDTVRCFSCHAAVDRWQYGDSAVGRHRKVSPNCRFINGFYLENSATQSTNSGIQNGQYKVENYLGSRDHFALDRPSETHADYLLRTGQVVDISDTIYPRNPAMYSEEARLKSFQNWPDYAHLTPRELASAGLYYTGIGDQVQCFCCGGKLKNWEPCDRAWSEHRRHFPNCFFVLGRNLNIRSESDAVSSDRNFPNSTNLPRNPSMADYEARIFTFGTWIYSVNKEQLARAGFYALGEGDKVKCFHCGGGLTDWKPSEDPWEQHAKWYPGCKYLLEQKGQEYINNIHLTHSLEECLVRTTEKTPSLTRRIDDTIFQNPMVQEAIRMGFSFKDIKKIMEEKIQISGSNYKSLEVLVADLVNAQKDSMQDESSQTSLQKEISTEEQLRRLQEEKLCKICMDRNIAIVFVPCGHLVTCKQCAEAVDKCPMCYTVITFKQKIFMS
Sequence of Luciferin 4-monooxygenase (P08659 whole entry): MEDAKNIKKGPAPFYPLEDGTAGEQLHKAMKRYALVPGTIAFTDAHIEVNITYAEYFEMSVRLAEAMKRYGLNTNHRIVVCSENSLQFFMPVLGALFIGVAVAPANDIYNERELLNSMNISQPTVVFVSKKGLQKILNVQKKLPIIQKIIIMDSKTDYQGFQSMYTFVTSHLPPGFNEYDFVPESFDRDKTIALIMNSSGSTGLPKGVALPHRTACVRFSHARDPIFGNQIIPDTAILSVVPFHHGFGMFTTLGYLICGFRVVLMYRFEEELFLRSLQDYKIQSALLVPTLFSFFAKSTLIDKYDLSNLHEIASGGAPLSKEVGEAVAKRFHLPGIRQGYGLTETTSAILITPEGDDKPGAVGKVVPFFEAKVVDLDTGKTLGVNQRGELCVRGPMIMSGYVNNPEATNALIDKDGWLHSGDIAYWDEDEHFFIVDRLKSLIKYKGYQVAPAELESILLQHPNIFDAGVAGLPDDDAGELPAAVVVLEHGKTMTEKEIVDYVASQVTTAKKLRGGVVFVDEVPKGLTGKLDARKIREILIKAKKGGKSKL

S=C(Nc1ccc(Oc2ccccc2)cc1)NC1CCCCC1
CC50 [1]: 30.1 µM (active)

O=S(=O)(c1ccc(Cl)cc1)c1snnc1-c1ccccc1
EC50 [2]: 3.53 µM (active) | EC50 [3]: 3.73 µM (active) | AC50 [4]: 23.9 µM (active) | EC50 [5]: 4.96 µM (active) | EC50 [6]: 3.25 µM (inconclusive) | IC50 [7]: 6.92 µM (inactive) | EC50 [8]: 2.39 µM (active) | EC50 [9]: 0.51 µM (active) | IC50 [10]: > 20 µM (inactive) | AC50 [11]: 7.86 µM (active) | EC50 [12]: 20.7 µM (active) | IC50 [13]: > 100 µM (not active) | IC50 [14]: > 100 µM (inactive) | IC50 [15]: 2.17 µM (active) | EC50 [16]: 10.7 µM (active) | EC50 [17]: 9.19 µM (active) | CC50 [18]: 2.44 µM (active)

c1ccc2c(c1)Sc1ccccc1N2CC1CN2CCC1CC2 (centres undefined) [MEQUITAZINE]
IC50 [19]: > 20 µM (inactive) | IC50 [20]: > 20 µM (inactive) | IC50 [21]: > 20 µM (inactive) | IC50 [22]: > 40 µM (inactive) | IC50 [23]: 8.46 µM (inactive) | IC50 [24]: > 20 µM (inactive) | IC50 [25]: > 40 µM (inactive) | IC50 [26]: 5.43 µM (inactive) | IC50 [27]: > 20 µM (inactive) | IC50 [28]: > 20 µM (inactive)

COc1ccccc1C#Cc1ccc([C@H]2[C@@H](C#N)N(C(=O)C3CCCCC3)[C@H]2CO)cc1
AC50 [29]: 11.3 µM (active) | AC50 [30]: 0.443 µM (active) | AC50 [31]: 14.9 µM (active) | AC50 [32]: 29.8 µM (active) | AC50 [33]: 1.19 µM (active) | AC50 [34]: 0.862 µM (active) | AC50 [35]: 21.3 µM (active) | AC50 [36]: 30.5 µM (active) | AC50 [37]: 0.349 µM (active) | AC50 [38]: 7.87 µM (active) | AC50 [39]: 1.17 µM (active)
